“Also recorded” adds a separate entry of the source. Values belong to the molecule of their own block, whether it stands above or below them. Ends that are not written are not given here.
Experiments:
chymotrypsin = chymotrypsin (Bos taurus, UniProt P00766); assay: Enzymatic degradation study: proteolytic stability on incubation with chymotrypsin (HPLC, LCMS); format: in vitro ADME; conditions: for remaining at 5 min, 1.5 mM / remaining at 0.25 h, 1.5 mM / remaining at 0.5 h, 1.5 mM / remaining at 0.75 h, 1.5 mM / remaining at 1 h, 1.5 mM / remaining at 1.5 h, 1.5 mM / remaining at 2 h, 1.5 mM / remaining at 8 h, 1.5 mM: chymotrypsin (isolated protease) in Tris buffer, read-out: enzyme degradation studies, peptide at time point; for remaining at 5 min, 1.5 mM / remaining at 0.25 h, 1.5 mM / remaining at 0.5 h, 1.5 mM / remaining at 0.75 h, 1.5 mM / remaining at 1 h, 1.5 mM / remaining at 1.5 h, 1.5 mM / remaining at 2 h, 1.5 mM / remaining at 8 h, 1.5 mM / enzyme degradation studies, peptide at time point: chymotrypsin, 10 mM Tris buffer pH 7.5, peptide 1.5 mM; for remaining at 0.25 h, 1.5 mM: time 15 min; for remaining at 0.5 h, 1.5 mM: time 30 min; for remaining at 0.75 h, 1.5 mM: time 45 min; for remaining at 1 h, 1.5 mM: time 60 min; for remaining at 1.5 h, 1.5 mM: time 90 min; for remaining at 2 h, 1.5 mM: time 120 min; for remaining at 8 h, 1.5 mM: time 480 min; for enzyme degradation studies, peptide at time point: time 0 min
Experimental: FIG. 25, comprising FIG. 25A through FIG. 25C, depicts representative enzymatic Degradation Studies. Linear peptide AVGPFEY (SEQ ID NO: 13) and cyclic peptide cyc(AVGPFEY) (SEQ ID NO: 13) 2a were individually dissolved in 10 mM Tris buffer pH 7.5 (final conc. 1.5 mM). A chymotrypsin stock solution was created by the addition of 1 mg chymotrypsin in 100 μL CaCl2 (0.01 M), 100 μL tris buffer (0.1 M pH 7.5), 100 μL HCl (1 mM). 10 μL of the chymotrypsin stock solution was added to both linear peptide AVGPFEY (SEQ ID NO: 13) and cyclic peptide cyc(AVGPFEY) (SEQ ID NO: 13) 2a solutions. Samples (100 μL) were taken after regular intervals of time from both linear and cyclic peptide solutions. 100 μL of each sample was quenched with 400 μL of frozen water and solutions were frozen at −80° C. at the following time intervals: 0 min, 5 min, 15 min, 30 min, 45 min, 60 min, 90 min, 120 min, and 480 min. Each sample was lyophilized and analyzed using HPLC and LCMS. FIG. 25A depicts a schematic representation of the enzyme degradation of cyclic peptide cyc(AVGPFEY) (SEQ ID NO: 13) 2a. FIG. 25B depicts a schematic representation of the enzyme degradation of linear peptide 1a. FIG. 25C depicts representative HPLC data of various time aliquots of the enzyme degradation of linear peptide 1a.
To evaluate the potential of 4-imidazolidinone cyclic peptides for biological applications, the proteolytic stability of a cyclic peptide cyc(AVGPFEY) (SEQ ID NO: 13) 2a in comparison with its linear counterpart AVGPFEY (SEQ ID NO: 13) was examiner. Linear peptide AVGPFEY ID NO: 13) and cyclic peptide cyc(AVGPFEY) (SEQ ID NO: 13) 2a were incubated with chymotrypsin, which hydrolyzes peptide bonds at the C-terminal side of aromatic residues, such as Phe.

[1] = as above; format: in vitro ADME; conditions: chymotrypsin (isolated protease) in Tris buffer, pH 7.5; up to 24 h; HPLC and MS analysis; read-out: cleavage observed in the presence of chymotrypsin
[2] = CyClick: N-terminal amine condenses with side-chain or C-terminal aldehyde (or ketone) to a cyclic imine, then the residue-2 amide N attacks to give a 4-imidazolidinone; DMAP (7 equiv); conditions: H2O/DMF 1:1, 5.0 mM, 25.0 °C
[3] = Stability of 4-imidazolidinone cyclic peptide under different pH conditions (hydrolysis/degradation, HPLC); format: physicochemical; conditions: 10 mM phosphate buffer, pH 3.5, 5.5, 7.5, 8.5, 10.5, room temperature, up to 24 h
Experimental: FIG. 22, comprising FIG. 22A through FIG. 22D, depicts representative effects of 4-imidazolidinone in cyclic peptides. FIG. 22A depicts representative VT-NMR spectra of head-to-tail 4-imidazolidinone cyclic peptide 4a in aqueous solutions. FIG. 22B depicts representative turn structure of 4-imidazolidinone cyclic peptide 4a obtained by running ForceGen (Jain A N et al., 2019, J. Comput.-Aided Mol. Des., 33:531) with NMR constraints. […] Cyclic peptide cyc(NVGPFEY) (SEQ ID NO: 19) 2f (2.5 mg) was dissolved in H2O to form a stock solution (500 μL, conc. 7 mM). 100 μL of the stock was added to 400 μL of sodium phosphate buffer (10 mM) at the following pH values: 3.5, 5.5, 7.5, 8.5, 10.5 (total conc. 1.4 mM). The reactions were shaken at room temperature. Samples were analyzed by injecting them in HPLC after regular intervals of time. […] FIG. 22D depicts representative proteolytic stability of 4-imidazolidinone cyclic peptide 2a as compared to its linear counterpart.
The stability of cyclic peptides is a major concern, for pharmaceutical applications. To evaluate the stability of a 4-imidazolidinone cyclic peptide, cyclic peptide cyc(NVGPFEY) (SEQ ID NO: 19) 2f was incubated under different pH conditions.

remaining at 5 min, 1.5 mM (chymotrypsin): 100% | remaining at 0.25 h, 1.5 mM (chymotrypsin): 100% | remaining at 0.5 h, 1.5 mM (chymotrypsin): 100% | remaining at 0.75 h, 1.5 mM (chymotrypsin): 100% | remaining at 1 h, 1.5 mM (chymotrypsin): 100% | remaining at 1.5 h, 1.5 mM (chymotrypsin): 100% | remaining at 2 h, 1.5 mM (chymotrypsin): 100% | remaining at 8 h, 1.5 mM (chymotrypsin): 91.9% | enzyme degradation studies, peptide at time point (chymotrypsin): 100% | metabolised at 24 h, 1.5 mM [1]: 20%
Molecule: CC(C)[C@H]1C(=O)NCC(=O)N2CCC[C@H]2C(=O)N[C@@H](Cc2ccccc2)C(=O)N[C@H](C(=O)N[C@@H](Cc2ccc(O)cc2)C(N)=O)CCC(=O)NC[C@@H]2N[C@@H](C)C(=O)N21 [2a, cyc(Ala-Val-Gly-Pro-Phe-Glu)Tyr]

Molecule: C[C@@H]1NC2[C@H](C)NC(=O)[C@@H]3CCCN3C(=O)CNC(=O)[C@H](Cc3ccccc3)N2C1=O (stereo partly drawn) [H-Ala-Phe-Gly-Pro-Ala-H (C-terminal aldehyde)]
ring closure, conversion by HPLC ([2]; from C[C@H](N)C(=O)N[C@@H](Cc1ccccc1)C(=O)NCC(=O)N1CCC[C@H]1C(=O)N[C@@H](C)C=O, 12-membered ring): 71%

Molecule: C[C@@H]1N=CCNC(=O)CC[C@@H](C(=O)N[C@@H](Cc2ccc(O)cc2)C(N)=O)NC(=O)[C@H](Cc2ccccc2)NC(=O)[C@H](C)NC(=O)CNC(=O)[C@@H]2CCCN2C1=O [H-Ala-Pro-Gly-Ala-Phe-Glu(NH-CH2-CHO)-Tyr-NH2]
ring closure, conversion by HPLC ([2]; from C[C@H](N)C(=O)N1CCC[C@H]1C(=O)NCC(=O)N[C@@H](C)C(=O)N[C@@H](Cc1ccccc1)C(=O)N[C@@H](CCC(=O)NCC=O)C(=O)N[C@@H](Cc1ccc(O)cc1)C(N)=O, 20-membered ring): 0%

Molecule: CC(C)[C@H]1C(=O)NCC(=O)N2CCC[C@H]2C(=O)N[C@@H](Cc2ccccc2)C(=O)N[C@H](C(=O)N[C@@H](Cc2ccc(O)cc2)C(N)=O)CCC(=O)NCC2N[C@@H](C)C(=O)N21 (stereo partly drawn) [H-Ala-Val-Gly-Pro-Phe-Glu(NH-CH2-CHO)-Tyr-NH2]
ring closure, conversion by HPLC ([2]; from CC(C)[C@H](NC(=O)[C@H](C)N)C(=O)NCC(=O)N1CCC[C@H]1C(=O)N[C@@H](Cc1ccccc1)C(=O)N[C@@H](CCC(=O)NCC=O)C(=O)N[C@@H](Cc1ccc(O)cc1)C(N)=O, 20-membered ring, 8.0 h): 99%

Molecule: CC(C)[C@H]1C(=O)NCC(=O)N2CCC[C@H]2C(=O)N[C@@H](Cc2ccccc2)C(=O)N[C@H](C(=O)N[C@@H](Cc2ccc(O)cc2)C(N)=O)CCCCNC(=O)CCC2(C)N[C@@H](C)C(=O)N12 (stereo partly drawn) [H-Ala-Val-Gly-Pro-Phe-Lys(levulinoyl)-Tyr-NH2]
ring closure, conversion by HPLC ([2]; from CC(=O)CCC(=O)NCCCC[C@H](NC(=O)[C@H](Cc1ccccc1)NC(=O)[C@@H]1CCCN1C(=O)CNC(=O)[C@@H](NC(=O)[C@H](C)N)C(C)C)C(=O)N[C@@H](Cc1ccc(O)cc1)C(N)=O, 23-membered ring): 36%

Molecule: NCCCC[C@H](NC(=O)[C@@H]1CCC(=O)NCC2N[C@@H](CC(N)=O)C(=O)N2[C@@H](Cc2ccccc2)C(=O)N2CCC[C@H]2C(=O)N[C@@H](Cc2ccccc2)C(=O)N1)C(N)=O (stereo partly drawn) [H-Asn-Phe-Pro-Phe-Glu(NH-CH2-CHO)-Lys-NH2]
ring closure, conversion by HPLC ([2]; from NCCCC[C@H](NC(=O)[C@H](CCC(=O)NCC=O)NC(=O)[C@H](Cc1ccccc1)NC(=O)[C@@H]1CCCN1C(=O)[C@H](Cc1ccccc1)NC(=O)[C@@H](N)CC(N)=O)C(N)=O, 17-membered ring): 70%

Molecule: CC(C)[C@H]1C(=O)NCC(=O)N2CCC[C@H]2C(=O)N[C@@H](Cc2ccccc2)C(=O)N[C@H](C(=O)N[C@@H](Cc2ccc(O)cc2)C(N)=O)CCC(=O)NCC2N[C@@H](CC(N)=O)C(=O)N21 (stereo partly drawn) [H-Asn-Val-Gly-Pro-Phe-Glu(NH-CH2-CHO)-Tyr-NH2]
ring closure, conversion by HPLC ([2]; from CC(C)[C@H](NC(=O)[C@@H](N)CC(N)=O)C(=O)NCC(=O)N1CCC[C@H]1C(=O)N[C@@H](Cc1ccccc1)C(=O)N[C@@H](CCC(=O)NCC=O)C(=O)N[C@@H](Cc1ccc(O)cc1)C(N)=O, 20-membered ring, 16.0 h): 85%

Molecule: CC(C)[C@H]1C(=O)NCC(=O)N2CCC[C@H]2C(=O)N[C@@H](Cc2ccccc2)C(=O)N[C@H](C(=O)N[C@@H](Cc2ccc(O)cc2)C(N)=O)CCC(=O)NCC2N[C@@H](CCCCN)C(=O)N21 (stereo partly drawn) [H-Lys-Val-Gly-Pro-Phe-Glu(NH-CH2-CHO)-Tyr-NH2]
ring closure, conversion by HPLC ([2]; from CC(C)[C@H](NC(=O)[C@@H](N)CCCCN)C(=O)NCC(=O)N1CCC[C@H]1C(=O)N[C@@H](Cc1ccccc1)C(=O)N[C@@H](CCC(=O)NCC=O)C(=O)N[C@@H](Cc1ccc(O)cc1)C(N)=O, 20-membered ring): 84%

Molecule: C[C@@H]1NC(=O)[C@@H]2CCCN2C(=O)CN2C(=O)[C@H](Cc3ccccc3)NC12 (stereo partly drawn) [H-Phe-Gly-Pro-Ala-H (C-terminal aldehyde)]
ring closure, conversion by HPLC ([2]; from C[C@@H](C=O)NC(=O)[C@@H]1CCCN1C(=O)CNC(=O)[C@@H](N)Cc1ccccc1, 9-membered ring, 24.0 h): 0%

Molecule: CC(C)[C@H]1C(=O)NCC(=O)N2CCC[C@H]2C(=O)N[C@@H](Cc2ccccc2)C(=O)N[C@H](C(=O)N[C@@H](Cc2ccc(O)cc2)C(N)=O)CCC(=O)NCC2N[C@@H](CO)C(=O)N21 (stereo partly drawn) [H-Ser-Val-Gly-Pro-Phe-Glu(NH-CH2-CHO)-Tyr-NH2]
ring closure, conversion by HPLC ([2]; from CC(C)[C@H](NC(=O)[C@@H](N)CO)C(=O)NCC(=O)N1CCC[C@H]1C(=O)N[C@@H](Cc1ccccc1)C(=O)N[C@@H](CCC(=O)NCC=O)C(=O)N[C@@H](Cc1ccc(O)cc1)C(N)=O, 20-membered ring): 100%

time until fully consumed in the presence of chymotrypsin (chymotrypsin; HPLC and MS analysis): 90 min | remaining at 5 min, 1.5 mM (chymotrypsin): 82.9% | remaining at 0.25 h, 1.5 mM (chymotrypsin): 66.3% | remaining at 0.5 h, 1.5 mM (chymotrypsin): 38.6% | remaining at 0.75 h, 1.5 mM (chymotrypsin): 20.2% | remaining at 1 h, 1.5 mM (chymotrypsin): 10.9% | remaining at 1.5 h, 1.5 mM (chymotrypsin): 7.7% | remaining at 2 h, 1.5 mM (chymotrypsin): 0% | remaining at 8 h, 1.5 mM (chymotrypsin): 0% | half-life at 1.5 mM (chymotrypsin; chymotrypsin in Tris buffer, pH 7.5, HPLC and MS analysis, read-out: half-life in the presence of chymotrypsin): 20 min | enzyme degradation studies, peptide at time point (chymotrypsin): 100%
Molecule: AVGPFEY-NH2 [AVGPFEY]

Molecule: cyc(Asn-Val-Gly-Pro-Phe-Glu)-Tyr (NVGPFEY; not fully specified (residue 6, bridges); printed as cyc(Asn-Val-Gly-Pro-Phe-Glu)-Tyr; also: Glu side-chain aldehyde, bridge at N, other end not in the chain) [2f]
resistance to hydrolysis/degradation under different pH conditions [3]: remained unchanged; also recorded: No degradation

Reference: patent US12043674B2, “Synthetic cyclic peptides and methods of preparation and use thereof” (Auburn University, priority 2020, dated 2024)
